According to patent US6352996B1, “Liposomal prodrugs comprising derivatives of camptothecin and methods of treating cancer using these prodrugs” (priority 1999, dated 2002):
Where two headings read alike, the source gives them in different places.

What was measured:
U-937 cells = assay: Growth inhibition of U-937 cells treated with CPT esters; type: cell-based; details: 0.2 μM, 120 hr, percent of exponential growth of untreated cells (100%), mean of four estimates
Protocol: Growth inhibition of U-937 cells treated with various CPT esters.
Each identified compound was added to reach a culture of U-937 cell having a final concentration of 0.2 μM. The treatment time was for 120 hr. Growth inhibition in each of the treated cultures was then estimated as a percent of the exponential growth of the cells that was considered 100%. Each estimate was the mean value of four estimates.

CLO breast carcinoma = assay: Human breast carcinoma CLO xenograft in nude mice; type: in vivo; details: 8 mg/kg intramuscular twice a week, day 55 (FIG. 16)
Source text: Swiss nude mice of the NIH high fertility strain were bred and maintained pathogen-free in a laboratory. (Giovanella, B. C. and Stehlin, J. S. “Heterotransplantation of human malignant tumors in ‘nude’ thymusless mice. I. Breeding and maintenance of ‘nude’ mice.” J. Natl. Cancer Inst. 51: 615-619; 1973.)
Human malignant carcinomas of the colon, breast, lung, ovary, stomach, pancreas, bladder, prostate, osteosarcoma and malignant melanomas were heterotransplanted directly from patients into the nude mice and passaged serially. In particular, the tumors CLO, MUR, CAS, SW 48, SQU and BRO as described in Giovanella, B. C., Stehlin, J. S., Shepard, R. C. and Williams, L. J. “Correlation between response to chemotherapy of human tumors in patients and in nude mice.” Cancer 52: 1146-1152; 1983, tumor SCH as described in Heim, S., Mandahl, N., Arheden, K., Giovanella, B. C., Yim, S. O., Stehlin, J. S., Jr. and Mitebman, F. “Multiple karyotypic abnormalities including structural rearrangements of 11P in cell lines from malignant melanomas.” Cancer Genet. Cytogent, 35:5-20; 1988, and Verschraegen, C., Ciovanella, B. C., Mendoza, J. T., Kozielski, A. J. and Stehlin, J. S., Jr. “Specific organ metastases of human melanoma cells injected into the arterial circulation of nude mice.” Anticancer Res., In Press, and tumor PC-3 as described in Invest. Urol. 17, 16-23, 1979, were used. […]

[1] = Closed lactone form in plasma of mice after intrastomach administration; type: in vivo; details: after i.s. administration, mouse (FIG. 3)
human malignancies = assay: Clinical responses in Phase I clinical trial patients; type: in vivo; details: in humans
human tumor xenografts [2] = test system: human tumor xenografts
human tumor xenografts [3] = details: in mice; cited from earlier work
[4] = Closed lactone form in human plasma after oral administration; details: for % present as closed lactone form in human blood/plasma: after oral administration (FIGS. 2, 4, 5, 7, 8)
[5] = Changes of body weights of mice during the test time period (toxicity); type: in vivo; details: nude mice
Source text: The preferred derivatives display significant antitumor activity with much lower toxicity than their parent camptothecin, CPT. The animal experimental data for these new derivatives were collected. Camptothecin 20(S) propioniate (where R1 is ethyl and R2 is H) is designated as Prodrug 2 and taken as a example to disclose some in vivo experimental data. FIG. 6 represents the antitumor activity of this compound in different doses against the implanted human breast carcinoma (CLO) in nude mice. The change of body weight of mice is recorded with the time.

[6] = Stability of lactone form in human plasma; type: in vitro ADME; details: for Percent in plasma (lactone, percent of the initial lactone amount added): 1 μg/ml
Protocol: CPT or SF6A lactone was added to human plasma (1 μg/ml) and an incubation and lactone determination were made as described in Example 15. The lactone amount at each time-point was detected after removing the carboxylate form, and subsequently was calculated as percent of the initial lactone amount added. The results shown in this Table below were derived from one of the three independent experiments performed using different incubation times. The pattern of quantitation of the lactones was similar in all three experiments.

[7] = mouse liver homogenate, 2 μg SF6A/ml, 37° C.
Protocol: Determination of SF6A (Prodrug 2) and CPT in liver homogenate.
Mouse liver was homogenized in 4 volumes of ice-cold 0.15 M KCl with the aid of a Dounce homogenizer, then centrifuged at 15000 G for 10 min to remove particulate material. The supernatant, designated as liver homogenate, was transferred into a capped polypropylene tube, mixed with 2 μg SF6A/ml and incubated in a 37° C. water-bath. At the desired times, samples were removed and mixed with 4 volumes of ice-cold ethanol to precipitate proteins. The samples were stored at −20° C. until all were collected. Following centrifugation at 15000 G for 10 min, the clarified supernatants were subjected to analysis for determination of SF6A and CPT lactones by high pressure liquid chromatography (HPLC). The compounds were detected by fluorescence spectroscopy setting the excitation and emission wavelengths at 347 nm and 418 nm, respectively. CPT and SF6A have characteristic retention times of 3.5 min and 13.5 min, respectively.

## CC[C@@]1(OC(C)=O)C(=O)OCc2c1cc1n(c2=O)Cc2cc3ccccc3nc2-1 [CPT-acetate]
U-937 cells
  Growth %: 92 ± 4%

## CC=CC(=O)OC1(CC)C(=O)OCc2c1cc1n(c2=O)Cc2cc3ccccc3nc2-1 (stereo not drawn) [Compound IB, Camptothecin 20-O crotonate]
CLO breast carcinoma
  tumor size: actually reducing the tumor size

## CCC1(OC(=O)C2OC2C)C(=O)OCc2c1cc1n(c2=O)Cc2cc3ccccc3nc2-1 (stereo not drawn) [Compound IC, Camptothecin 20-O-2′, 3′-epoxy-butyrate]
CLO breast carcinoma
  tumor size: stabilize the tumor size after a certain amount of time

## CC[C@@]1(O)C(=O)OCc2c1cc1n(c2=O)Cc2cc3c([N+](=O)[O-])cccc3nc2-1 [Example 9NC, 9-nitrocamptothecin, reference compound]
[1]
  drug present in the plasma in the closed lactone form: 57%
Human malignancies
  complete tumor regressions: 2/32
Human tumor xenografts [2]; in mice
  complete tumor regressions: 32/32
Human tumor xenografts [3]
  potency relative to CPT against human tumor xenografts: 2-3 times
[4]
  % present as closed lactone form in human blood/plasma: ~3%
[4]; oral administration to Phase I clinical trial patients, on average (FIGS. 4 and 5)
  drug present in plasma in the closed lactone form: ~3%

## CCC(=O)O[C@]1(CC)C(=O)OCc2c1cc1n(c2=O)Cc2cc3ccccc3nc2-1 [Prodrug 2, Camptothecin 20-O-propionate]
[5]; dose 5 mg/kg, day 21
  Body weight: 21/33 gms
[5]; dose 5 mg/kg, day 27
  Body weight: 27/33.7 gms
[5]; dose 5 mg/kg, day 34
  Body weight: 34/34.3 gms
[5]; dose 5 mg/kg, day 41
  Body weight: 41/33.5 gms
[5]; dose 5 mg/kg, day 48
  Body weight: 48/32.9 gms
[5]; dose 5 mg/kg, day 56
  Body weight: 56/33.2 gms
[5]; dose 6 mg/kg, day 21
  Body weight: 21/32.9 gms
[5]; dose 6 mg/kg, day 27
  Body weight: 27/33.4 gms
[5]; dose 6 mg/kg, day 34
  Body weight: 34/33.8 gms
[5]; dose 6 mg/kg, day 41
  Body weight: 41/33.5 gms
[5]; dose 6 mg/kg, day 48
  Body weight: 48/34.0 gms
[5]; dose 6 mg/kg, day 56
  Body weight: 56/32.2 gms
[5]; dose 7 mg/kg, day 21
  Body weight: 21/30.8 gms
[5]; dose 7 mg/kg, day 27
  Body weight: 27/31.7 gms
[5]; dose 7 mg/kg, day 34
  Body weight: 34/30.6 gms
[5]; dose 7 mg/kg, day 41
  Body weight: 41/31.1 gms
[5]; dose 7 mg/kg, day 48
  Body weight: 48/31.6 gms
[5]; dose 7 mg/kg, day 56
  Body weight: 56/31.5 gms
[5]; dose 8 mg/kg, day 21
  Body weight: 21/32.9 gms
[5]; dose 8 mg/kg, day 27
  Body weight: 27/34.1 gms
[5]; dose 8 mg/kg, day 34
  Body weight: 34/34.0 gms
[5]; dose 8 mg/kg, day 41
  Body weight: 41/33.4 gms
[5]; dose 8 mg/kg, day 48
  Body weight: 48/33.9 gms
[5]; dose 8 mg/kg, day 56
  Body weight: 56/33.2 gms
[5]; doses 5-8 mg/kg
  change of body weight of mice during the test time period: no losses of mice body weights
[6]; Time 0 Hr
  Lactone % in Human Plasma: 100%
[6]; Time 1 Hr
  Lactone % in Human Plasma: 86%
[6]; Time 2 Hr
  Lactone % in Human Plasma: 77%
[6]; Time 4 Hr
  Lactone % in Human Plasma: 68%
[6]; Time 6 Hr
  Lactone % in Human Plasma: 56%
[6]; human plasma
  time the lactone ring remained intact, versus CPT: much longer
[6]; human plasma, incubation time 0.0 hr
  Percent in plasma (lactone, percent of the initial lactone amount added): 100.0%
[6]; human plasma, incubation time 1.0 hr
  Percent in plasma (lactone, percent of the initial lactone amount added): 86.0%
[6]; human plasma, incubation time 2.0 hr
  Percent in plasma (lactone, percent of the initial lactone amount added): 77.0%
[6]; human plasma, incubation time 4.0 hr
  Percent in plasma (lactone, percent of the initial lactone amount added): 68.0%
[6]; human plasma, incubation time 6.0 hr
  Percent in plasma (lactone, percent of the initial lactone amount added): 56.0%
[6]; human plasma, incubation time 27.0 hr
  Percent in plasma (lactone, percent of the initial lactone amount added): 9.0%
U-937 cells
  Growth %: 31 ± 2%
[7]; incubation 0 min
  Amount determined: CPT (formed from SF6A): 0.00 µg/mL
  Amount determined: SF6A: 1.95 µg/mL
[7]; incubation 10 min
  Amount determined: CPT (formed from SF6A): 0.00 µg/mL
  Amount determined: SF6A: 2.06 µg/mL
[7]; incubation 60 min
  Amount determined: CPT (formed from SF6A): 0.00 µg/mL
  Amount determined: SF6A: 2.05 µg/mL
[7]; incubation 6 hr
  Amount determined: CPT (formed from SF6A): 0.00 µg/mL
  Amount determined: SF6A: 2.05 µg/mL
[7]; incubation 24 hr
  Amount determined: CPT (formed from SF6A): 0.47 µg/mL
  Amount determined: SF6A: 0.96 µg/mL
[7]; incubation 48 hr
  Amount determined: CPT (formed from SF6A): 0.30 µg/mL
  Amount determined: SF6A: 0.90 µg/mL
Human tumor xenografts [2]; mice
  toxicity: exceptional lack of toxicity, even at enormous doses in mice
Human tumor xenografts [2]; nude mice
  antitumor activity against xenografts of human tumors: exhibits antitumor activity against human tumor xenografts
[4]
  % present as closed lactone form in human blood/plasma: 2.8%
[4]; human, oral administration, versus CPT or 9NC
  increase of lactone share over the parent compound: sevenfold
